Data reported in patent US20230357099A1, “PYRAZOLO [3,4-B] PYRIDINE-4-CARBOXAMIDE NITRIFICATION INHIBITOR” (EUROCHEM ANTWERPTEN, priority 2020, published 2023).

Assays:
[1] = test system: Nitrososphaera viennensis; assay: Nitrification inhibition assay on Nitrososphaera viennensis (nitrite, Griess); format: cell-based, Nitrososphaera viennensis EN76T; settings: for activity at 2.5 µM: Nitrososphaera viennensis, 2.5 µM compound, structural variants outside formula (I), read-out: Relative nitrification (%) by Nitrososphaera viennensis treated with 2.5 µM compound
Description: Nitrite (NO2—) was measured using the Griess reagent (Product number: G4410, Griess reagent (modified), Sigma-Aldrich). Equal volumes of the sample or a diluted sample and the Griess reagent were mixed a transparent flat bottom multi-well plate and incubated in the dark at room temperature for 10 minutes. Absorbance values at 540 nm were measured spectrophotometrically (EnVision, Perkin Elmer®) and used to calculate the [NO2—] by use of a standard curve.
A liquid culture sample of Nitrososphaera viennensis EN76T was kindly supplied by prof. dr. Christa Schleper (University of Vienna). Cells were grown in fresh water medium (FWM) as described earlier by Tourna et al. (2011). All necessary materials were rinsed with 1 % HCl and washed at least 3 times with MilliQ water. FWM (pH 7.5 (KOH)) contained 17 mM NaCl, 3 mM MgCl2 × 2 H2O, 680 µM CaCl2 × 2 H2O, 1.47 mM KH2PO4 and 6.71 mM KCI. After autoclaving, successively 1 mL non-chelated trace element mixture (101 mM HCl, 488 µM H3BO3, 508 µM MnCl2 × 4 H2O, 803 µM CoCl2 × 6 H2O, 101 µM NiCl2 × 6 H2O, 12 µM CuCl2 × 2 H2O, 503 µM ZnSO4 × 7 H2O and 150 µM Na2MoO4 × 2 H2O), 1 mL Fe-NaEDTA (7.5 mM), 1 mL vitamin solution (20 mg/L biotin, 20 mg/L folic acid, 100 mg/L pyridoxine-HCl, 50 mg/L thiamine-HCl, 50 mg/L riboflavin, 50 mg/L nicotinic acid, 50 mg/L DL-pantothenic acid, 50 mg/L P-aminobenzoic acid, 2 g/L choline chloride and 10 mg/L vitamin B12), 2 mL NaHCO3 (1 M), 2 mL kanamycin (100 mg/mL), 2 mL carbenicillin (100 mg/mL), 3 mL NH4Cl (1 M), 10 mL HEPES buffer (1 M, pH 7.6) and 1 mL Na-pyruvate (0.1 M) were added aseptically. All stock-solutions were filter-sterilized, except the autoclaved non-chelated trace element mixture. Cultures were incubated aerobically at 42° C. without shaking in sterile 250-mL Erlenmeyer flasks or 30-mL cultivation tubes (Product number: 216-1290, Quickstart universal containers STERILIN®, VWR) filled with either 100 or 20 mL FWM and sealed with tape (Micropore™ Surgical Tape 1530-1, 3M™). Late-log phase cultures ([NO2-] ≥ 1 mM) were subcultivated by dilution (1:400) in fresh FWM.
7-day old 100 mL cultures grown in 250-mL Erlenmeyer flasks with a [NO2-] ≥ 1 mM were 5 times overconcentrated in fresh FWM by centrifugation (4000 rpm, 15 min, 5° C.) in 50 mL centrifuge tubes (Cat. No. 430829, CentriStar™ Conical Centrifuge Tubes, Corning®). Per batch, all the cultures were pooled in one sterile Schott bottle. Subsequently, 200 µl/well was dispensed at low pipetting speed in transparent flat bottom 96-well plates (Cat. No. 353072, Falcon® 96 Well Clear Microplate, Corning®) using 150 µl wide-bore tips (two steps of 100 µl) on a Tecan robot (Freedom EVO®, Tecan). 0.5 µl of 99.99 % DMSO (negative control - final concentration 0.25%) and 0.5 µl of 0.04 M PTIO (2-phenyl-4,4,5,5-tetramethylimidazoline-1-oxyl 3-oxide, positive control - final concentration 100 µM) were added manually to the first and last column respectively. Finally, 0.5 µl of candidate nitrification inhibitors (1 mM stock solutions in 99.99% DMSO - final concentration 2.5 µM) were added to the central wells using a pin tool on a Tecan robot (Freedom EVO®, Tecan). In between additions, the pins were washed in sequence with 99.5% DMSO, MilliQ water and 100% ethanol and air-dried. All plates were sealed with tape (Micropore™ Surgical Tape 1530-1, 3M™), stacked per 4 on top of a 96-well plate filled with 100 µl MilliQ per well and covered with aluminum foil. Position effects of the stacks within the incubator were considered. Plates were incubated at 42° C. without shaking. 24 h later, NO2— was measured spectrophotometrically at 540 nm (EnVision, Perkin Elmer®). […]

[2] = test system: ABIL (ammonia-binding liquid inoculum), nitrifying microbial enrichment containing both AOA and AOB; assay: Nitrification inhibition assay on ABIL (ammonium consumption); format: cell-based; settings: for activity at 10 µM: 10 µM compound, structural variants outside formula (I), read-out: Relative nitrification (%) by ABIL treated with 10 µM compound

Row | inhibition in the ABIL assay ([2]; PTIO at 33 µM) | SMILES | activity at 2.5 µM [1] | activity at 10 µM [2] | inhibition in the N. viennensis assay ([1]; PTIO at 25 µM)
1 |  | Cc1nn(-c2ccc(F)cc2)c2nc3c(cc12)C(=O)CC(C)(C)C3 [Example 72] | 99% | 100% | 
2 |  | O=C(NC1CC1)c1cccc(NC(=O)c2n[nH]c3ccccc23)c1 [Example 165] | 100% | 100% | 
3 |  | Cc1nc2c(cnn2C(C)C)cc1C(=O)N1CCc2ccccc21 [Example 74] | 100% | 100% | 
4 |  | Cc1cc(C)nc(-n2nc(C)c3c(C(F)(F)F)cc(-c4cccnc4)nc32)n1 [Example 86] | 94% | 100% | 
5 |  | C#CCOCCC(=O)Nc1n[nH]c2c(Cl)cccc12 [Example 120] | 98% | 100% | 
6 |  | CC(C)n1ncc2cc(C(=O)NCc3ccccc3OC(F)(F)F)cnc21 [Example 42] | 98% | 98% | 
7 |  | O=S1(=O)CCCN1c1cccc(NCc2cccc3cn[nH]c23)c1 [Example 106] | 100% | 94% | 
8 |  | Cc1nc2c(cnn2C(C)C)cc1C(=O)N1CCCN(C)c2nc3ccccc3nc21 [Example 91] | 100% | 100% | 
9 |  | CCC1CN(C(=O)CCc2c(C)nc3c(c(C)nn3C)c2C)CCO1 (centres unmarked) [Example 58] | 98% | 100% | 
10 |  | CC(C)n1ncc2cc(NC(=O)CCC3CCCO3)cnc21 (centres unmarked) [Example 35] | 98% | 96% | 
11 |  | CCN(CCC#N)Cn1nc(Cl)c2ccccc21 [Example 150] | 100% | 100% | 
12 |  | O=S(=O)(Cc1ccccc1F)Nc1ccc2[nH]ncc2c1 [Example 153] | 100% | 100% | 
13 |  | O=C(NCC1CCCO1)c1n[nH]c2ccc(Br)cc12 (centres unmarked) [Example 142] | 100% | 100% | 
14 |  | CC(NC(=O)c1cnc2c(cnn2C(C)C)c1)C1CCCO1 (centres unmarked) [Example 52] | 100% | 100% | 
15 |  | CC(Oc1ccc(Br)cc1)C(=O)Nc1cnc2c(cnn2C(C)C)c1 (centres unmarked) [Example 22] | 100% | 90% | 
16 |  | CC(C)n1ncc2cc(NC(=O)C3=CN4CCS(=O)(=O)N=C4C=C3)cnc21 [Example 53] | 95% | 100% | 
17 |  | Cc1nc2c(c(C)nn2C)c(C)c1CCC(=O)N1CCOCC1 [Example 60] | 100% | 100% | 
18 |  | CC(C)n1ncc2ccc(NC(=O)NC3CCN(C)C3=O)cc21 (centres unmarked) [Example 140] | 100% | 100% | 
19 |  | O=S(=O)(Nc1cccc2cn[nH]c12)N1CCCCC1 [Example 149] | 100% | 100% | 
20 |  | Cc1nc2c(c(C)nn2C)c(C)c1CCC(=O)NC(C)C1CCCO1 (centres unmarked) [Example 57] | 97% | 100% | 
21 |  | COC(=O)c1cc(CNC(=O)c2n[nH]c3ccccc23)ccc1OC [Example 100] | 96% | 90% | 
22 |  | COc1ccc(S(=O)(=O)Nc2cccc3cn[nH]c23)c(NS(=O)(=O)C(F)F)c1 [Example 107] | 100% | 96% | 
23 | does not show inhibition anymore | CC1(C)N([O])C(c2ccccc2)=[N+]([O-])C1(C)C [PTIO, 2-phenyl-4,4,5,5-tetramethylimidazoline-1-oxyl 3-oxide] |  |  | does not show inhibition anymore
24 |  | Fc1cccnc1N1CCC(NCc2cccc3cn[nH]c23)C1 (centres unmarked) [Example 112] | 100% | 98% | 
25 |  | CC(C)n1ncc2cc(NC(=O)C3CC3(Cl)Cl)cnc21 (centres unmarked) [Example 19] | 100% | 90% | 

Row | inhibition in the ABIL assay ([2]; PTIO at 33 µM) | SMILES | activity at 2.5 µM [1] | activity at 10 µM [2] | inhibition in the N. viennensis assay ([1]; PTIO at 25 µM)
26 |  | CC(C)n1ncc2cc(NC(=O)CCc3cc4ccccc4o3)cnc21 [Example 65] | 100% | 100% | 
27 |  | Cc1nc2c(c(C)nn2C)c(C)c1CCC(=O)Nc1ccccc1C(=O)O [Example 77] | 100% | 100% | 
28 |  | COC(=O)C1(CNCc2cccc3cn[nH]c23)CCOCC1 [Example 152] | 98% | 100% | 
29 |  | COCCCCCNC(=O)Nc1ccc2[nH]ncc2c1 [Example 128] | 100% | 100% | 
30 |  | CC(C)n1ncc2cc(NC(=O)Cc3ccc(F)cc3)cnc21 [Example 56] | 100% | 100% | 
31 |  | Cc1nc2c(c(C)nn2C)c(C)c1CCC(=O)NCC1CCCO1 (centres unmarked) [Example 80] | 100% | 100% | 
32 |  | Cc1ccccc1OCCN(C)C(=O)c1n[nH]c2ccccc12 [Example 148] | 100% | 100% | 
33 |  | Cc1nc2c(cnn2C(C)C)c(C)c1CCC(=O)N1CCSCC1 [Example 26] | 100% | 92% | 
34 |  | COCCN(C(=O)c1cnc2c(cnn2C(C)C)c1)C1CC1 [Example 79] | 97% | 100% | 
35 |  | CCN(CC1CCOC1)C(=O)c1cc2cnn(C(C)C)c2nc1C (centres unmarked) [Example 41] | 100% | 98% | 
36 |  | Cc1nn(C)c2ncc(CN3CCNCC3C)cc12 (centres unmarked) [Example 82] | 96% | 100% | 
37 |  | CC(NC(=O)C1(NC(=O)c2ccc3[nH]ncc3c2)CCCC1)C1CC1 (centres unmarked) [Example 138] | 100% | 100% | 
38 |  | CC(C)CC(CNC(=O)c1n[nH]c2ccccc12)N1CCOCC1 (centres unmarked) [Example 133] | 100% | 100% | 
39 |  | CC(CNC(=O)c1cccc2[nH]ncc12)CC1(C)OCCO1 (centres unmarked) [Example 110] | 100% | 97% | 
40 |  | CC1CCCCN1C(=O)c1n[nH]c2ccccc12 (centres unmarked) [Example 156] | 100% | 100% | 
41 |  | O=C(O)CC1(CC(=O)Nc2ccc3cn[nH]c3c2)CCCCC1 [Example 129] | 100% | 100% | 
42 |  | COc1ccc(C(O)CNCc2cccc3cn[nH]c23)cc1 (centres unmarked) [Example 154] | 99% | 100% | 
43 |  | Cc1nc2c(c(C)nn2C)c(C)c1CCC(=O)N1CC(C)OC(C)C1 (centres unmarked) [Example 46] | 90% | 99% | 
44 |  | c1csc(Cn2ncc3ccc(-c4ccc5c(c4)OCO5)nc32)c1 [Example 25] | 100% | 91% | 
45 |  | Cc1nn(C)c2ncc(C(=O)NCC3CN(CC(C)C)CCO3)cc12 (centres unmarked) [Example 21] | 100% | 90% | 
46 |  | O=C(c1n[nH]c2ccccc12)N1CCSCC1 [Example 123] | 92% | 100% | 
47 |  | CC(C)n1ncc2cc(C(=O)Nc3ccnn3Cc3ccc(Cl)cc3Cl)cnc21 [Example 84] | 100% | 100% | 
48 |  | CCCCc1nnc(NC(=O)c2n[nH]c3ccccc23)s1 [Example 97] | 100% | 86% | 
49 |  | O=S(=O)(Nc1ccc2cn[nH]c2c1)c1cccc2ccccc12 [Example 161] | 100% | 100% | 
